Results as given in patent US7425579B2, “Methods for inhibiting activity of polyamine transporters” (Universite Laval, priority 1998, dated 2008).

Tests used:
[1] = tested on: polyamine transport system; test: Time course of [3H]spermidine accumulation in T-47D cells; format: cell-based, human
Procedure: (§1) In particular, exponentially growing T-47D (A) or ZR-75-1 cells (B and C) were transferred to serum-free medium containing 5 μM [^3H]spermidine, and either 200 μM cycloheximide (CHX) (●), 100 μM BNSD-X (□), CHX plus BNSD-X (▪), or vehicle only (∘). Cells were incubated for the time intervals indicated prior to harvesting for detrmination of total intracellular radioactivity. ZR-75-1 cells were either pre-incubated for 48 h in the absence (panel B) or presence of 1 mM DFMO (panel C) prior to the experiment shown; DFMO was also included during the labeling period in the appropriate group. Data are presented as the mean±SD for triplicate cultures from one representative experiment;
The effect of BNSD-X on the time course of [^3H]spermidine accumulation was determined in ZR-75-1 and T-47D cells pre-incubated in the presence or absence of DFMO before addition of radioactive substrate and the transport inhibitor. Subgroups of cell cultures were also treated with cycloheximide in order to prevent the polyamine-dependent induction of ODC antizyme, which rapidly down-regulates polyamine transport activity through an unknown mechanism (Lessard et al. (1995) J. Biol. Chem. 270, 1685-1694; Coffino et al. (2001) Nat Rev Mol Cell Biol. 2:188-194). As expected, [^3H]spermidine accumulation reached a plateau after approximately 2 h in both […], but increased in an approximately linear fashion for the first 6-8 h in the presence of cycloheximide, consistent with relief from feedback repression of polyamine transport as a result of inhibition of antizyme synthesis. At a BNSD-X:spermidine ratio of 20:1, the triamine dimer decreased net [^3H]spermidine uptake in T-47D cells after 8 h by 92% and 80% in the presence or absence of cycloheximide, respectively (FIG. 7A), whereas it inhibited spermidine accumulation by 90 and 65%, respectively, under the same conditions in ZR-75-1 cells (FIG. 7B). […]

CHO-TOR cells = test: Potentiation of DFMO-induced cytostasis in CHO-TOR cells; format: cell-based, Chinese hamster; conditions: 2 mM DFMO; 4 d
Procedure: (§2) FIGS. 9A and 9B are graphs showing that potentiation of DFMO-induced cytostasis by a compound used in a method according to a preferred embodiment of the invention requires a functional polyamine transport system. In particular, CHO-TOR cells (A) and their polyamine transport-deficient mutant subline CHO-MG (B) were grown in medium containing 1 mM aminoguanidine and the indicated concentration of spermidine, in the presence of 2 mM DFMO (●), BNSD-X (□), DFMO+BNSD-X (▪), or vehicle only (∘). Cells were harvested after 4 d for determination of total DNA/well. Data are presented as the mean±SD for triplicate cultures from one representative experiment;
(§3) To determine the ability of polyamine transport antagonists to potentiate DFMO-induced inhibition of cell proliferation in the presence of exogenous polyamines, cells were grown for the indicated period in growth medium supplemented with 1 mM aminoguanidine, and either DFMO (1 to 5 mM), the indicated transport inhibitor (50 or 100 μM), or the combination thereof, as well as increasing concentrations of spermidine (0.1 to 300 μM). Fresh medium was added every other day, and cell mass was determined at various time points during the period of exponential growth, or at the end of the experimental period. […]

CHO-MG cells = test: Potentiation of DFMO-induced cytostasis in polyamine transport-deficient CHO-MG cells; format: cell-based, Chinese hamster; conditions: 2 mM DFMO; 4 d; polyamine transport mutant
Procedure: as §2, §3

[2] = tested on: polyamine transport system; test: Time course of [3H]spermidine accumulation in ZR-75-1 cells; format: cell-based, human; conditions: after 8 h
Procedure: as §1
The effect of BNSD-X on the time course of [^3H]spermidine accumulation was determined in ZR-75-1 and T-47D cells pre-incubated in the presence or absence of DFMO before addition of radioactive substrate and the transport inhibitor. Subgroups of cell cultures were also treated with cycloheximide in order to prevent the polyamine-dependent induction of ODC antizyme, which rapidly down-regulates polyamine transport activity through an unknown mechanism (Lessard et al. (1995) J. Biol. Chem. 270, 1685-1694; Coffino et al. (2001) Nat Rev Mol Cell Biol. 2:188-194). […]

CHO-K1 cells = test: Determination of intracellular polyamine contents in CHO-K1 cells; format: cell-based, Chinese hamster
Procedure: At the indicated time, cells were harvested for the determination of putrescine (A), spermidine (B) and spermine contents (C). Data are presented as the mean±SD for triplicate cultures from one representative experiment; […] At the indicated time intervals, medium was removed, cell monolayers were rinsed twice: with 10 ml of ice-cold Ca^2+/Mg^2+-free phosphate-buffered saline (PBS) (2.7 mM KCl, 1.5 mM KH2PO4, 8.1 mM Na2HPO4, 137 mM NaCl), and cells were harvested by low-speed centrifugation (2400 g for 5 min at 4° C.). […] Polyamine content was then determined by ion-pair reverse phase HPLC with fluorometric detection after post-column derivatization with o-phthaldialdehyde as described (U.S. Pat. No. 6,083,496). […] Pat. No. 6,083,496).

SMILES: NCCCN(CCCN)Cc1ccc(CN(CCCN)CCCN)cc1 [28a, N,N,N′,N′-tetrakis-(3-aminopropyl)-p-diaminoxylene]
- residual rate of spermidine influx, of the maximal rate of spermidine accumulation ([1]; 20-fold excess of BNSD-X, T-47D and ZR-75-1): 8-10%
- decrease of net [3H]spermidine uptake, without cycloheximide ([1]; T-47D, after 8 h, BNSD-X:spermidine 20:1): 80%
- decrease of net [3H]spermidine uptake, with cycloheximide ([1]; T-47D, after 8 h, BNSD-X:spermidine 20:1 (100 μM:5 μM), 200 μM cycloheximide): 92%
- potentiation of DFMO-induced cytostasis in the absence of exogenous spermidine, CHO-TOR (CHO-TOR cells): observed in the parental cell line
- potentiation of DFMO-induced cytostasis in the absence of exogenous spermidine, CHO-MG (CHO-MG cells): not in the polyamine transport mutant
- inhibition of spermidine accumulation, without cycloheximide ([2]; BNSD-X:spermidine 20:1): 65%
- inhibition of spermidine accumulation, with cycloheximide ([2]; BNSD-X:spermidine 20:1, 200 μM cycloheximide): 90%
- reduction of intracellular spermidine content by BNSD-X alone (CHO-K1 cells; 100 μM, over the first 2 days of incubation): about 50%
- effect on intracellular putrescine content (CHO-K1 cells; single agent): quickly led to putrescine depletion
- effect on intracellular spermine content (CHO-K1 cells; up to 4 days): no significant effect on spermine content
